Results as given in US6835735B2, “4-(phenylamino)-[1,4]dioxano[2,3-g]quinazoline derivatives and process for preparing the same” (Korea Institute of Science and Technology, priority 2001, dated 2004).
Converted amounts (≈) assume the structure as drawn.

Assays:
[1] = target: T1, purified human EGFR kinase (Homo sapiens, UniProt P00533); assay: Inhibition of EGFR tyrosine kinase (P32-ATP, biotin-conjugated substrate); assay type: biochemical; conditions: purified human EGFR kinase, 50 μM ATP, 30° C., 10 min
T1 construct: purchased Promega
Description: The test was accomplished in a 20 μl reaction volume using 0.1 unit per reaction of purified human EGFR kinase (Promega, U.S.A.) and 50 μM biotin-conjugated substrate for tyrosine kinase (Promega, U.S.A.) and, 50 μM P^32-γ-ATP (0.2 μCi) and 20 mM Tris-HCl (pH 7.5) were employed as an ATP and a reaction solution, respectively. The test was carried out at 30° C. for 10 min, and terminated by the addition of 10 μl of 30% phosphate solution. The half of the reaction product was spotted onto avidin-layered PVDF membrane, which was then washed with 20 mM Tris-HCl (pH 8.0) and 0.2N NaCl aqueous solution for more than 2 hours.

[2] = Measurement of the solubility of compounds in water (HPLC calibration curve); assay type: physicochemical; conditions: supersaturated in 1 ml of water, centrifuged, supernatant by HPLC; read-out: Solubility (mg/10 ml of water)
Description: That is, 1 mg of each of the above compounds was completely dissolved in 1 ml of DMSO, which was then subjected to HPLC employing C18 resin, and the peak area of chromatogram was calculated. And then, 1 mg of each of the same compound was dissolved in 10 ml of DMSO, which was then subjected to the same HPLC as the above to obtain a chromatogram, and the peak area was calculated therefrom. A solubility calibration curve was prepared by employing the above two data, and a linear function was deduced from that to complete a calibration curve (X axis: area, Y axis: logarithm value of concentration).
Each of the same compounds was supersaturated in 1 ml of water, which was then centrifuged at 14,000 rpm for 1 min. The precipitate was separated from the supernatant which was then subjected to the same HPLC as the above to obtain a chromatogram, and the peak area was calculated therefrom. The obtained value was substituted to the above calibration curve to measure the solubility by mg/10 ml of water (see: Table 1).

A431 cancer cell = assay: Inhibition of cancer cell growth (sulforhodamine B); assay type: cell-based; conditions: Homo sapiens, A-431, 48 h, A431 cells, grown 2 days with compound, SRB staining
Description: A431 cancer cell was cultivated at 37° C. under an environment of 5% (v/v) CO2 employing RPMI 1640 medium containing 10% (v/v) fetal calf serum. […] The above cells was grown again for 2 days, and then, fixed with formalin solution (Sigma Chem. Co., U.S.A.) and washed with water. After that, the cells was dried in the atmosphere, stained with 0.1% (v/v) sulforhodamine B solution (Sigma Chem. Co., U.S.A.) for 30 min and wash with 1% (v/v) acetic acid aqueous solution. Then, dye attached to cells was extracted with 0.1M Tris-HCl (pH 8.0) and the absorbances of the remaining culture were measured at 520 nm by the aid of microplate reader. And then, the concentration of the compound by which cell growth is 50% inhibited was represented as GI50(s: Table 3).

T1 sequence (P00533 25-1210): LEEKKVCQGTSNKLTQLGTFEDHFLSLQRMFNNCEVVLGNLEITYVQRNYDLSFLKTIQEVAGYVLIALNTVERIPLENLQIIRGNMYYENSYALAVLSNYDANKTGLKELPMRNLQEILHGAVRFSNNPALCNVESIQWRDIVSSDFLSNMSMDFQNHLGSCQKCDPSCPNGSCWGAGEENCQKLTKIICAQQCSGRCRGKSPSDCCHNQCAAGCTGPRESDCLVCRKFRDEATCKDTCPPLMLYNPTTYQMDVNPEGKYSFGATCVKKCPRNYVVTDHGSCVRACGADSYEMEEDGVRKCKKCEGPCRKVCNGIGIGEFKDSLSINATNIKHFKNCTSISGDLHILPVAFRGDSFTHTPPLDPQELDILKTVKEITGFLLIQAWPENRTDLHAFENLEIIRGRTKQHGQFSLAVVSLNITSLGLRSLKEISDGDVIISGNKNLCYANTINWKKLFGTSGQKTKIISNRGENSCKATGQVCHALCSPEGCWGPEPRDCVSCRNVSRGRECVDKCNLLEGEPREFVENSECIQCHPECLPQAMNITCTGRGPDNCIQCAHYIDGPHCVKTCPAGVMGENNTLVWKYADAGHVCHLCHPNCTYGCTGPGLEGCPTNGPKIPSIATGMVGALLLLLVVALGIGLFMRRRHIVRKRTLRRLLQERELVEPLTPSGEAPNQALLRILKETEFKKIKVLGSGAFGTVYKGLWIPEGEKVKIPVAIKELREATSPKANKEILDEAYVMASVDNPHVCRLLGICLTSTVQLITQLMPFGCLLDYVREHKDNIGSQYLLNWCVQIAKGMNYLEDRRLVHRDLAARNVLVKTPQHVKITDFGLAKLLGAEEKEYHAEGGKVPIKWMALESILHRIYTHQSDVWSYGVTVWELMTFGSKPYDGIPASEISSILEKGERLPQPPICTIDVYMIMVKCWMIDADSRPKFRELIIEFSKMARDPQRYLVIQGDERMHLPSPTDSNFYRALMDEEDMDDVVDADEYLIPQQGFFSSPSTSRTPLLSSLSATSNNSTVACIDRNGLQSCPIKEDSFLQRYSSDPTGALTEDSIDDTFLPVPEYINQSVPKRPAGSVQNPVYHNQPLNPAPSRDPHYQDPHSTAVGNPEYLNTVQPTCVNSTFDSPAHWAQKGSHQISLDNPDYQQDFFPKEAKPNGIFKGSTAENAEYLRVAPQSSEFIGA

IC50 [1]: > 293 nM | solubility thermodynamic [2]: 1040 µg/mL (≈ 3050 µM) | GI50 (A431 cancer cell): 1.16 µg/mL (≈ 3.4 µM) | melting point: 257 to 260 °C
Compound: COCC1COc2cc3ncnc(Nc4cccc(F)c4)c3cc2O1 (stereo not shown) [Example 8, (3-fluorophenyl)-(7-methoxymethyl-[1,4]-dioxano[2,3-g]quinazolin-4-yl)-amine]
